Measured values reported in patent publication US11596639B2, “Substituted indole Mcl-1 inhibitors” (Vanderbilt University, priority 2016, dated 2023).
Where two headings read alike, the source gives them in different places.

Columns and labels:
Mcl-1 = Mcl-1 (Homo sapiens (Human), UniProt Q07820); test: TR-FRET binding assay, FITC-Bak peptide and MBP-tagged Mcl-1; conditions: read-out: Ki for Inhibition of Mcl-1 by TR-FRET assay
Method: Compounds are diluted in DMSO in a 16-point, semilog serial dilution scheme. […] The plate was mixed and incubated for 3 hours at room temperature. […] TR-FRET signal is plotted and IC50 and Ki values are calculated in the same manner as the fluorescence polarization anisotropy based competition assays.

[1] = test system: H929 human cancer cell lines; test: Cellular viability / proliferation (Cell TiterGlo, 72 h); format: cell-based
In short: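 1,000 cells/well, 10% FBS medium; compound added at 24 h, 2-fold dilutions from 50 μM top, DMSO <1% final. 72 h exposure, CellTiterGlo 30 min RT dark, luminescence read. IC50 by 4-parameter fit.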

[2] = Homo sapiens, NCI-H929, 72 h, read-out: GI50 on cellular proliferation of H929 human cancer cell lines, H929 cells, 72 h, Cell TiterGlo, 10% FBS

Chain of Mcl-1 (Q07820 172-327): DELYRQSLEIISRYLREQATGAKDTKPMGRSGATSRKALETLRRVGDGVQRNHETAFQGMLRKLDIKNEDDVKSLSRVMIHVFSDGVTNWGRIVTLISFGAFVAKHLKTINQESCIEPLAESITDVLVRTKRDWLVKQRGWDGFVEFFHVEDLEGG

SMILES | Ki (Mcl-1) [nM] | GI50 [1, 2] [nM] | GI50 ([1]; read-out: GI50 on cellular proliferation of H929 human cancer cell lines, H929 cells, 72 h, Cell TiterGlo, 10% FBS) [nM]
Cc1cc(OCCCc2c3n(c4c(-c5c(C)nn(C)c5C)c(Cl)ccc24)[C@H](C)CN(c2cc(NCCN4CCCC4)cc4c(C(=O)O)cn(C)c24)C3=O)cc(C)c1Cl [Example 486, (R)-7-(7-Chloro-10-(3-(4-chloro-3,5-dimethylphenoxy)propyl)-4-methyl-1-oxo-6-(1,3,5-trimethyl-1H-pyrazol-4-yl)-3,4-dihydropyrazino[1,2-a]indol-2(1H)-yl)-1-methyl-5-((2-(pyrrolidin-1-yl)ethyl)amino)-1H-indole-3-carboxylic acid] | 1.4 | 2900 | 
Cc1cc(N2C[C@@H](C)n3c(c(CCCOc4cc(C)c(Cl)c(C)c4)c4ccc(Cl)c(-c5c(C)nn(C)c5C)c43)C2=O)c2c(c1)cc(C(=O)O)n2Cc1cc(N2CCNCC2)ccn1 [Example 553, (R)-7-(7-chloro-10-(3-(4-chloro-3,5-dimethylphenoxy)propyl)-4-methyl-1-oxo-6-(1,3,5-trimethyl-1H-pyrazol-4-yl)-3,4-dihydropyrazino[1,2-a]indol-2(1H)-yl)-5-methyl-1-((4-(piperazin-1-yl)pyridin-2-yl)methyl)-1H-indole-2-carboxylic acid] | < 0.2 | 2800 | 
COc1ccnc(Cn2c(C(=O)O)cc3c(OC)ccc(N4C[C@@H](C)n5c(c(CCCOc6cc(C)c(Cl)c(C)c6)c6ccc(Cl)c(-c7c(C)ncnc7C)c65)C4=O)c32)c1 [Example 476, (R)-7-(7-Chloro-10-(3-(4-chloro-3,5-dimethylphenoxy)propyl)-6-(4,6-dimethylpyrimidin-5-yl)-4-methyl-1-oxo-3,4-dihydropyrazino[1,2-a]indol-2(1H)-yl)-4-methoxy-1-((4-methoxypyridin-2-yl)methyl)-1H-indole-2-carboxylic acid] | < 0.2 | < 200 | 
COCCn1cnc(-c2ccc3c(c2)c(N2C[C@@H](C)n4c(c(CCCOc5cc(C)c(Cl)c(C)c5)c5ccc(Cl)c(-c6c(C)nc(CN7CCN(C)C(=O)C7)nc6C)c54)C2=O)cn3CCN2CCOCC2)n1 [Example 722, (R)-7-Chloro-10-(3-(4-chloro-3,5-dimethylphenoxy)propyl)-6-(4,6-dimethyl-2-((4-methyl-3-oxopiperazin-1-yl)methyl)pyrimidin-5-yl)-2-(5-(1-(2-methoxyethyl)-1H-1,2,4-triazol-3-yl)-1-(2-morpholinoethyl)-1H-indol-3-yl)-4-methyl-3,4-dihydropyrazino[1,2-a]indol-1(2H)-one] | 3.1 | < 200 | 
CCN(C)c1cc(N2C[C@@H](C)n3c(c(CCCOc4cc(C)c(Cl)c(C)c4)c4ccc(Cl)c(-c5c(C)nn(C)c5C)c43)C2=O)c2c(c1)cc(C(=O)O)n2C [Example 680, (R)-7-(7-chloro-10-(3-(4-chloro-3,5-dimethylphenoxy)propyl)-4-methyl-1-oxo-6-(1,3,5-trimethyl-1H-pyrazol-4-yl)-3,4-dihydropyrazino[1,2-a]indol-2(1H)-yl)-5-(ethyl(methyl)amino)-1-methyl-1H-indole-2-carboxylic acid] | 0.33 | 610 | 
CCOCCOc1cc(N2C[C@@H](C)n3c(c(CCCOc4cc(C)c(Cl)c(C)c4)c4ccc(Cl)c(-c5c(C)nn(C)c5C)c43)C2=O)c2c(c1)c(C(=O)O)cn2Cc1ccccn1 [Example 610, (R)-7-(7-chloro-10-(3-(4-chloro-3,5-dimethylphenoxy)propyl)-4-methyl-1-oxo-6-(1,3,5-trimethyl-1H-pyrazol-4-yl)-3,4-dihydropyrazino[1,2-a]indol-2(1H)-yl)-5-(2-ethoxyethoxy)-1-(pyridin-2-ylmethyl)-1H-indole-3-carboxylic acid] | < 0.2 | 400 | 
COc1cc(N2C[C@@H](C)n3c(c(CCCOc4cc(C)c(Cl)c(C)c4)c4ccc(Cl)c(-c5c(C)ncnc5C)c43)C2=O)c2c(c1)cc(C(=O)O)n2Cc1cc(C)ccn1 [Example 565, (R)-7-(7-chloro-10-(3-(4-chloro-3,5-dimethylphenoxy)propyl)-6-(4,6-dimethylpyrimidin-5-yl)-4-methyl-1-oxo-3,4-dihydropyrazino[1,2-a]indol-2(1H)-yl)-5-methoxy-1-((4-methylpyridin-2-yl)methyl)-1H-indole-2-carboxylic acid] | < 0.2 | < 200 | 
Cc1cc(OCCCc2c3n(c4c(-c5c(C)nn(C)c5C)c(Cl)ccc24)[C@H](C)CN(c2cc(C(=O)N4CCN(C)C(=O)C4)cc4cc(C(=O)O)n(C)c24)C3=O)cc(C)c1Cl [Example 630, (R)-7-(7-chloro-10-(3-(4-chloro-3,5-dimethylphenoxy)propyl)-4-methyl-1-oxo-6-(1,3,5-trimethyl-1H-pyrazol-4-yl)-3,4-dihydropyrazino[1,2-a]indol-2(1H)-yl)-1-methyl-5-(4-methyl-3-oxopiperazine-1-carbonyl)-1H-indole-2-carboxylic acid] | < 0.2 | 9000 | 
COCCOCCOc1cc(N2C[C@@H](C)n3c(c(CCCOc4cc(C)c(Cl)c(C)c4)c4ccc(Cl)c(-c5c(C)ncnc5C)c43)C2=O)c2c(c1)cc(C(=O)O)n2C [Example 631, (R)-7-(7-chloro-10-(3-(4-chloro-3,5-dimethylphenoxy)propyl)-6-(4,6-dimethylpyrimidin-5-yl)-4-methyl-1-oxo-3,4-dihydropyrazino[1,2-a]indol-2(1H)-yl)-5-(2-(2-methoxyethoxy)ethoxy)-1-methyl-1H-indole-2-carboxylic acid] | < 0.2 | 300 | 
COCCOc1cc(N2C[C@@H](C)n3c(c(CCCOc4cc(C)c(Cl)c(C)c4)c4ccc(Cl)c(-c5c(C)nn(C)c5C)c43)C2=O)c2c(c1)c(C(=O)O)cn2Cc1ccccn1 [Example 609, (R)-7-(7-chloro-10-(3-(4-chloro-3,5-dimethylphenoxy)propyl)-4-methyl-1-oxo-6-(1,3,5-trimethyl-1H-pyrazol-4-yl)-3,4-dihydropyrazino[1,2-a]indol-2(1H)-yl)-5-(2-methoxyethoxy)-1-(pyridin-2-ylmethyl)-1H-indole-3-carboxylic acid] | 0.26 | 340 | 
COCCn1cc(C(=O)O)c2c(OC)ccc(N3C[C@@H](C)n4c(c(CCCOc5cc(C)c(Cl)c(C)c5)c5ccc(Cl)c(-c6c(C)nn(C)c6C)c54)C3=O)c21 [Example 625, (R)-7-(7-chloro-10-(3-(4-chloro-3,5-dimethylphenoxy)propyl)-4-methyl-1-oxo-6-(1,3,5-trimethyl-1H-pyrazol-4-yl)-3,4-dihydropyrazino[1,2-a]indol-2(1H)-yl)-4-methoxy-1-(2-methoxyethyl)-1H-indole-3-carboxylic acid] | 0.22 | 420 | 
Cc1cc(OCCCc2c3n(c4c(-c5c(C)nn(C)c5C)c(Cl)ccc24)[C@H](C)CN(c2cn(C)c4ccc(-n5nccn5)nc24)C3=O)cc(C)c1Cl [Example 664, (R)-7-Chloro-10-(3-(4-chloro-3,5-dimethylphenoxy)propyl)-4-methyl-2-(1-methyl-5-(2H-1,2,3-triazol-2-yl)-1H-pyrrolo[3,2-b]pyridin-3-yl)-6-(1,3,5-trimethyl-1H-pyrazol-4-yl)-3,4-dihydropyrazino[1,2-a]indol-1(2H)-one] | 0.64 | 580 | 
COCCn1cc(C(=O)O)c2cc(OC)cc(N3C[C@@H](C)n4c(c(CCCOc5cc(C)c(Cl)c(C)c5)c5ccc(Cl)c(-c6c(C)nn(C)c6C)c54)C3=O)c21 (single isomer, unassigned) [Example 673] | 0.31 |  | 230
Cc1ccnc(Cn2c(C(=O)O)cc3cc(C)cc(N4C[C@@H](C)n5c(c(CCCOc6cc(C)c(Cl)c(C)c6)c6ccc(Cl)c(-c7c(C)ncnc7C)c65)C4=O)c32)c1 [Example 577, (R)-7-(7-chloro-10-(3-(4-chloro-3,5-dimethylphenoxy)propyl)-6-(4,6-dimethylpyrimidin-5-yl)-4-methyl-1-oxo-3,4-dihydropyrazino[1,2-a]indol-2(1H)-yl)-5-methyl-1-((4-methylpyridin-2-yl)methyl)-1H-indole-2-carboxylic acid] | < 0.2 | 230 | 
Cc1cc(OCCCc2c3n(c4c(-c5c(C)nn(C)c5C)c(Cl)ccc24)[C@H](C)CN(c2cc(OC4CC[N+](C)(C)C4)cc4cc(C(=O)O)n(C)c24)C3=O)cc(C)c1Cl (stereo partly drawn) [Example 513, 3-((2-Carboxy-7-((R)-7-chloro-10-(3-(4-chloro-3,5-dimethylphenoxy)propyl)-4-methyl-1-oxo-6-(1,3,5-trimethyl-1H-pyrazol-4-yl)-3,4-dihydropyrazino[1,2-a]indol-2(1H)-yl)-1-methyl-1H-indol-5-yl)oxy)-1,1-dimethylpyrrolidin-1-ium 2,2,2-trifluoroacetate] | < 0.2 | 5300 | 
Cc1cc(OCCCc2c3n(c4c(-c5c(C)nn(C)c5C)c(Cl)ccc24)[C@H](C)CN(c2cc(COCc4cscn4)cc4cc(C(=O)O)n(C)c24)C3=O)cc(C)c1Cl [Example 688, (R)-7-(7-chloro-10-(3-(4-chloro-3,5-dimethylphenoxy)propyl)-4-methyl-1-oxo-6-(1,3,5-trimethyl-1H-pyrazol-4-yl)-3,4-dihydropyrazino[1,2-a]indol-2(1H)-yl)-1-methyl-5-((thiazol-4-ylmethoxy)methyl)-1H-indole-2-carboxylic acid] | 0.22 | 430 | 
Cc1cc(N2C[C@@H](C)n3c(c(CCCOc4cc(C)c(Cl)c(C)c4)c4ccc(Cl)c(-c5c(C)nn(C)c5C)c43)C2=O)c2c(c1)cc(C(=O)O)n2CCOC(C)C [Example 578, (R)-7-(7-chloro-10-(3-(4-chloro-3,5-dimethylphenoxy)propyl)-4-methyl-1-oxo-6-(1,3,5-trimethyl-1H-pyrazol-4-yl)-3,4-dihydropyrazino[1,2-a]indol-2(1H)-yl)-1-(2-isopropoxyethyl)-5-methyl-1H-indole-2-carboxylic acid] | < 0.2 | 390 | 
